Experimental data taken from publication PMC5051147, “Ester Hydrolysis Differentially Reduces Aconitine-Induced Anti-hypersensitivity and Acute Neurotoxicity: Involvement of Spinal Microglial Dynorphin Expression and Implications for Aconitum Processing” (Frontiers in Pharmacology, 2016).
“Also recorded” adds a separate entry of the source.

How the values were obtained:
[1] = test system: heat hyperalgesia in spinal L5/L6 nerve–ligated neuropathic rats; assay: Heat hyperalgesia (radiant heat paw withdrawal latency) after intrathecal injection in spinal nerve-ligated neuropathic rats; assay type: in vivo, rat
Experimental: (§1) An 18-cm polyethylene catheter (PE-10: 0.28-mm inner diameter and 0.61-mm outer diameter, Clay Adams, Parsippany, NJ, USA) with a volume of 13 μL was inserted into the lumbar level of the spinal cord as described elsewhere under inhalational isoflurane anesthesia (4% for induction and 1% for maintenance) run by an anesthesia meter (Ugo Basile Gas Anesthesia System, Comerio, Italy). Two days after recovery from anesthesia, the placement of the catheter in the spinal cord was verified by administration of 4% lidocaine (10 μL, followed by 15 μL of saline for flushing). Rats that had no motor impairment after placement of the intrathecal catheter were considered for the study, and rats that developed immediate bilateral paralysis of the hindlimbs after intrathecal administration of lidocaine were selected for the study. For intrathecal administration of the control and test articles, 10 μL of each drug was injected with a 50-μL microinjector (Shanghai Anting Micro-Injector Factory, Shanghai, China) and was flushed with 15 μL of normal saline solution.
(§2) To induce hypersensitivity to neuropathic pain, the rats were subjected to spinal nerve ligation as previously described [Kim and Chung (1992)] and [Zhang et al. (2013)]. Unilateral ligation of the L5 and L6 spinal nerves was performed under inhalational isoflurane anesthesia (4% for induction and 1% for maintenance) run by an anesthesia meter (Ugo Basile Gas Anesthesia System). The left L5 and L6 spinal nerves were isolated and tightly ligated with 6-0 silk thread. After ligation, the wound was sutured and the rats were returned to their home cages for recovery. After spinal nerve ligation, only those rats with marked unilateral allodynia to mechanical stimulation (i.e., a hindpaw withdrawal threshold of less than 8 g on the operated side) and with no major impairment were included in the study. Drug testing started 2–4 weeks after spinal nerve ligation.
To assess heat hyperalgesia, the rats were put in a plexiglass box on an elevated glass surface. After an adaptation period of at least 30 min, radiant heat was applied to the plantar medial surface of each hindpaw. The hindpaw withdrawal latency was measured with a Model 390G Plantar Test Analgesia Meter (IITC Life Science Inc.). To prevent tissue damage, the latency cutoff was set at 30 s. The paw withdrawal latency was defined as the time from the onset of radiant heat application to the withdrawal of the hindpaw. Both hindpaws were tested independently three times with a 5-min interval between trials. The result for each test was calculated as the mean of the three repeated measurements.
(§3) The percentage of maximal possible effect (% MPE) was calculated using the following formula: (postdrug threshold in ipsilateral hindlimb – baseline threshold in ipsilateral hindlimb)/(baseline threshold in contralateral hindlimb – baseline threshold in ipsilateral hindlimb) × 100 ([Bowersox et al., 1996]). A % MPE value near 100 indicates normal mechanical thresholds (i.e., near contralateral thresholds), and a value near 0 indicates allodynia. For the dose-response curve analysis, the parameters (i.e., minimum effect; Emax, median effective concentration or dose, or median toxic or lethal dose [EC50, ED50, TD50, or LD50], and Hill coefficient [n]) were calculated from the individual dose-response curves using the Prism program (version 5.01, GraphPad Software, San Diego, CA, USA). […]

[2] = test system: spinal nerve–ligated neuropathic rats; assay: Acute spinal neurotoxicity (flaccid paralysis and death) after intrathecal injection; assay type: in vivo, rat; settings: for LD50 (mortality) / TD50 (for flaccid paralysis): intrathecal bolus, observed 24 h; for Normalized TD50: average of TD50 (paralysis) and LD50
Experimental: as §1
Survival and abnormal motor-blockade behaviors, including asthma, abdominal breathing, locomotion difficulty, and paralysis, were continuously monitored for 24 h after the treatment, with special attention given during the first 4 h. Paralysis was defined as an inability to negotiate a 60-degree inclined plane ([Durant and Yaksh, 1986]). Death was defined as respiratory arrest over a period of 5 min. The paralysis and mortality rates and their latencies were quantitatively recorded and tabulated.
(§4) The percentage of maximal possible effect (% MPE) was calculated using the following formula: (postdrug threshold in ipsilateral hindlimb – baseline threshold in ipsilateral hindlimb)/(baseline threshold in contralateral hindlimb – baseline threshold in ipsilateral hindlimb) × 100 ([Bowersox et al., 1996]). A % MPE value near 100 indicates normal mechanical thresholds (i.e., near contralateral thresholds), and a value near 0 indicates allodynia. For the dose-response curve analysis, the parameters (i.e., minimum effect; Emax, median effective concentration or dose, or median toxic or lethal dose [EC50, ED50, TD50, or LD50], and Hill coefficient [n]) were calculated from the individual dose-response curves using the Prism program (version 5.01, GraphPad Software, San Diego, CA, USA). To determine the parameters of the dose-response curves, the values of response (Y) were fitted by non-linear least-squares curves to the relation Y = a + bx, where x = [D]^n/(ED50^n + [D]^n), [C]^n/(EC50^n + [C]^n), [D]^n/(TD50^n + [D]^n) or [D]^n/(LD50^n + [D]^n), to give each value of ED50, EC50, TD50, or LD50 and b (Emax) yielding a minimum residual sum of squares of deviations from the theoretical curve ([Wang and Pang, 1993]).

[3] = test system: prodynorphin gene expression in primary cultures of spinal microglia; assay: Prodynorphin gene expression in cultured primary spinal microglia (real-time quantitative PCR); assay type: cell-based, rat
Experimental: Glial cells were isolated from the 1-day-old neonatal rats. The isolated spinal cords were minced and then incubated with trypsin. Dissociated cells were suspended in 75-cm^2 tissue culture flasks (1 × 10^7 cells/flask) precoated with poly-L-lysine and maintained in a 5% CO2 incubator at 37°C. After culture for 10 days, the microglial cells were prepared as floating cell suspensions by shaking the flask at 260 rpm for 2 h. The aliquots were transferred to plates, and the unattached cells were removed by washing with serum-free Dulbecco’s modified Eagle’s medium.
RNA extraction, reverse transcription, and real-time quantitative PCR were performed as previously described ([Chen et al., 2012]). The spinal lumbar enlargements of rats were collected and mechanically homogenized with an electronic microhomogenizer at 4,000 rpm for 10 s in TRIzol on ice. Total RNA from the spinal lumbar enlargements were isolated using TRIzol reagent (Invitrogen, Grand Island, NY, USA). A 1-μg sample of total RNA was reverse-transcribed with a ReverTra Ace qPCR RT-Kit (Toyobo, Japan). Real-time quantitative PCR was carried out with the Mastercycler ep realplex (Eppendorf, Germany) using the RealmasterMix (SYBR Green I) (Toyobo). The fold change was calculated with the 2^-ΔΔCt method after normalization to the gene of gapdh. […]
as §3, with “A % MPE value near 100 indicates normal mechanical thresholds (i.e., near contralateral thresholds), and a value near 0 indicates allodynia.” left out
Primary cultures of microglial cells taken from the spinal cords of the neonatal rats were treated with a variety of concentrations of aconitine (1 × 10^-8, 3 × 10^-8, 1 × 10^-7, 3 × 10^-7, and 1 × 10^-6 M), benzolyaconine (3 × 10^-7, 1 × 10^-6, 3 × 10^-6, 1 × 10^-5, 3 × 10^-5, and 1 × 10^-4 M) and aconine (1 × 10^-4, 3 × 10^-4, 1 × 10^-3, 3 × 10^-3, and 1 × 10^-2 M) for 2 h. As the bulleyaconitine A-increased dynorphin A level measured by the enzyme-linked immunosorbent assay was in parallel with the prodynorphin gene expression in spinal microglia from neonatal and adult rats ([Li et al., 2016]), the expression of the cellular prodynorphin gene encoding dynorphin A was only measured in this study using real-time quantitative PCR. […]

[4] = test system: mice; settings: intravenous injection in mice; ref Mizugaki and Ito, 2005; cited from earlier work
[5] = test system: mechanical allodynia in spinal L5/L6 nerve–ligated neuropathic rats; assay: Mechanical allodynia (von Frey paw withdrawal threshold) after intrathecal injection in spinal nerve-ligated neuropathic rats; assay type: in vivo, rat; settings: for Blockade of aconitine (100 ng) anti-allodynia / Blockade of benzolyaconine (10 μg) anti-allodynia: intrathecal pretreatment: antiserum 1:10 or nor-BNI 100 μg 0.5 h earlier, minocycline 100 μg 4 h earlier; for Own effect on withdrawal responses in contralateral or ipsilateral paws: compared with saline control
Experimental: as §1, §2
To evaluate mechanical allodynia, the animals were acclimatized for at least 30 min to the test environment, namely, a plexiglass box on a metal grid (0.5 cm × 0.5 cm). The hindpaw withdrawal threshold was measured with a 2450 CE Electronic von Frey hair (IITC Life Science Inc, Woodland Hill, CA, USA). An electronic handheld transducer with a No. 15 monofilament was applied perpendicularly to the medial surface of the hindpaws with increasing force (ranging from 0.1 to 90 g) until the rat suddenly withdrew or licked the hindpaw. The lowest force that produced a withdrawal response was considered to be the threshold, which was the mean of three repeated measurements made in a 5-min interval.
as §4

[6] = test system: pain hypersensitivity in spinal nerve-ligated neuropathic rats; assay: Anti-hypersensitivity, normalized (anti-allodynia and anti-hyperalgesia ED50 averaged); assay type: in vivo, rat
Experimental: as §4
Table 1 summarizes the ED50 values in mole base for aconitine, benzolyaconine, and aconine to block pain hypersensitivity. Because anti-allodynia and anti-hyperalgesia were closely correlated, their ED50 values were averaged to obtain a normalized ED50 for anti-hypersensitivity. The ED50 ratios for aconitine and benzolyaconine to block mechanical allodynia and heat hyperalgesia were 1:92 and 1:110, with a normalized ED50 ratio of 1:102.

[7] = test system: dynorphin A expression in spinal microglia; settings: 2016, cited from earlier work; for Effect on dynorphin A level / expression: spinal cord and cultured primary spinal microglia
[8] = test system: neuropathic rats; set-up: method as in Li et al., 2016; settings: ref Li et al., 2016; cited from earlier work
[9] = test system: mechanical allodynia in spinal L5/L6 nerve–ligated neuropathic rats; set-up: method as in Li et al., 2016; settings: ref Li et al., 2016; cited from earlier work
[10] = test system: heat hyperalgesia in spinal L5/L6 nerve–ligated neuropathic rats; set-up: method as in Li et al., 2016; settings: ref Li et al., 2016; cited from earlier work

## CCN1C[C@]2(COC)[C@H](O)C[C@H](OC)[C@]34C1[C@H]([C@H](OC)[C@H]23)[C@]1(O)[C@H]2[C@@H](O)[C@](O)(C[C@H]24)[C@@H](OC)[C@@H]1O [Aconine, aconine]
[1]; up to 300 μg
  Effect on heat hyperalgesia in ipsilateral paws: did not produce significant anti-allodynia or anti-hyperalgesia; also recorded: did not alter mechanical allodynia or thermal hyperalgesia
[2]
  LD50 (mortality): 1.7 µmol
  TD50 (for flaccid paralysis): 1.5 µmol
[2]; intrathecal
  Normalized TD50: 1.6 µmol
[3]; up to 10 mM, 2 h
  Effect on prodynorphin gene (dynorphin A) expression: did not significantly affect prodynorphin gene expression; also recorded: did not significantly stimulate the dynorphin A expression
[4]
  LD50: 120 mg/kg
[5]; intrathecal, up to 300 μg
  Effect on mechanical allodynia in ipsilateral paws: did not produce significant anti-allodynia or anti-hyperalgesia; also recorded: did not alter mechanical allodynia or thermal hyperalgesia

## CCN1CC2(COC)C(O)CC(OC)C34C5CC6(O)C(OC)C(O)C(O)(C5C6OC(=O)c5ccccc5)C(C(OC)C23)C14 (stereo not drawn) [Benzolyaconine, benzoylaconine]
[1]; 1 h after injection
  Emax, blockade of thermal hyperalgesia: 100 % MPE
[1]; % MPE at 1 h after injection
  ED50, anti-hyperalgesia: 3.5 nmol
[2]; intrathecal
  Duration of toxic motor-blockade behavior: 5 to 10 min
  Latency of toxic motor-blockade behavior: 2 to 3 min
  Normalized TD50: 0.2 µmol
[2]
  LD50 (mortality): 0.2 µmol
  TD50 (for flaccid paralysis): 0.2 µmol
[6]; intrathecal, average of allodynia and hyperalgesia ED50
  Normalized ED50 for anti-hypersensitivity: 3.6 nmol
[6]; times greater than aconitine
  Normalized ED50 relative to that of aconitine: 102 times
[3]; Rattus norvegicus, primary spinal microglia of neonatal rats, 2 h incubation, read-out: EC50, stimulation of prodynorphin gene (dynorphin A) expression
  EC50: 3 µM
[4]
  LD50: 23 mg/kg
[5]; intrathecal 10 μg
  Anti-allodynic effect in ipsilateral paws: marked and reversible anti-allodynia
[5]; intrathecal, 1 h after injection
  Emax, blockade of mechanical allodynia: 56.4 % MPE
[5]; intrathecal, % MPE at 1 h after injection
  ED50, anti-allodynia: 3.6 nmol
[5]; intrathecal, mechanical and thermal stimuli
  Effect on withdrawal responses in the contralateral paws: did not significantly affect the paw withdrawal responses in the contralateral paws

## C=C1C2CCC3(C4C[C@H]5C6(CCC[C@@]5(C)CN(CC)C46)[C@H]3[C@H]2O)[C@@H]1O [Bullatine A]
[7]; microglia in the spinal cord and cultured primary microglia, ref Huang et al.
  Effect on dynorphin A expression: specifically stimulated dynorphin A expression

## CCCCN1CCCCC1C(=O)Nc1c(C)cccc1C (stereo not drawn) [bupivacaine]
[7]; ref Li et al.
  Effect on dynorphin A level / expression: did not stimulate dynorphin A expression

## CCN(CC)CC(=O)Nc1c(C)cccc1C [lidocaine]
[7]; ref Li et al.
  Effect on dynorphin A level / expression: did not stimulate dynorphin A expression

## CN(C)c1ccc(O)c2c1C[C@H]1C[C@H]3[C@H](N(C)C)C(O)=C(C(N)=O)C(=O)[C@@]3(O)C(O)=C1C2=O [minocycline, reference compound]
[8]
  Effect on antinociceptive effects of bulleyaconitine A: completely abolished the antinociceptive effects of bulleyaconitine A
[5]
  Blockade of aconitine (100 ng) anti-allodynia: completely prevented
  Blockade of benzolyaconine (10 μg) anti-allodynia: completely alleviated benzolyaconine anti-allodynia
[5]; intrathecal
  Own effect on withdrawal responses in contralateral or ipsilateral paws: did not affect withdrawal thresholds

## Oc1ccc2c3c1O[C@H]1c4[nH]c5c(c4C[C@@]4(O)[C@@H](C2)N(CC2CC2)CC[C@]314)C[C@@]1(O)[C@H]2Cc3ccc(O)c4c3[C@@]1(CCN2CC1CC1)[C@H]5O4 [nor-BNI, Nor-binaltorphimine, reference compound]
[5]
  Blockade of aconitine (100 ng) anti-allodynia: completely blocked aconitine-induced anti-allodynia
  Blockade of benzolyaconine (10 μg) anti-allodynia: completely alleviated benzolyaconine anti-allodynia
[5]; intrathecal
  Own effect on withdrawal responses in contralateral or ipsilateral paws: did not affect the withdrawal responses

## bulleyaconitine A
[9]
  ED50, block of mechanical allodynia: 180 pmol
[7]; ref Li et al., read-out: EC50, stimulation of microglial dynorphin A expression
  EC50: 0.045 µM
[7]; ref Li et al.
  Effect on dynorphin A level / expression: significantly increased the dynorphin A level
[10]
  ED50, block of heat hyperalgesia: 201 pmol
